Measured values taken from the supplement of paper PMC13380429.

How the values were obtained:
Settings in all cases: 72 h
Caco-2 [1] = experiment: drug sensitivity score (DSS) for viability; higher = more toxic; extreme values may be limits of the assay
Calu-3 [2] = experiment: as above
Vero E6 [3] = experiment: as above
HepG2 [4] = experiment: as above
U2OS [5] = experiment: as above
Caco-2 [6] = experiment: cell viability relative to DMSO; higher = less toxic
Calu-3 [7] = experiment: as above
Vero E6 [8] = experiment: as above
HepG2 [9] = experiment: as above
U2OS [10] = experiment: as above
Caco-2 [11] = experiment: relative viability EC50 (midpoint between 100% and the lowest measured viability); higher = less toxic
Calu-3 [12] = experiment: as above
Vero E6 [13] = experiment: as above
HepG2 [14] = experiment: as above
U2OS [15] = experiment: as above

Row | SMILES | drug sensitivity score (Caco-2 [1]) | drug sensitivity score (Calu-3 [2]) | drug sensitivity score (Vero E6 [3]) | drug sensitivity score (HepG2 [4]) | drug sensitivity score (U2OS [5]) | cell viability (Caco-2 [6]; 1 nM) | cell viability (Caco-2 [6]; 10 nM) | cell viability (Caco-2 [6]; 100 nM) | cell viability (Caco-2 [6]; 1000 nM) | cell viability (Caco-2 [6]; 10000 nM) | cell viability (Calu-3 [7]; 1 nM) | cell viability (Calu-3 [7]; 10 nM) | cell viability (Calu-3 [7]; 100 nM) | cell viability (Calu-3 [7]; 1000 nM) | cell viability (Calu-3 [7]; 10000 nM) | cell viability (Vero E6 [8]; 1 nM) | cell viability (Vero E6 [8]; 10 nM) | cell viability (Vero E6 [8]; 100 nM) | cell viability (Vero E6 [8]; 1000 nM) | cell viability (Vero E6 [8]; 10000 nM) | cell viability (HepG2 [9]; 1 nM) | cell viability (HepG2 [9]; 10 nM) | cell viability (HepG2 [9]; 100 nM) | cell viability (HepG2 [9]; 1000 nM) | cell viability (HepG2 [9]; 10000 nM) | cell viability (U2OS [10]; 1 nM) | cell viability (U2OS [10]; 10 nM) | cell viability (U2OS [10]; 100 nM) | cell viability (U2OS [10]; 1000 nM) | cell viability (U2OS [10]; 10000 nM) | relative viability EC50 (Caco-2 [11]) | relative viability EC50 (Calu-3 [12]) | relative viability EC50 (Vero E6 [13]) | relative viability EC50 (HepG2 [14]) | relative viability EC50 (U2OS [15])
1 | Cc1cc(O)c2c(=O)c3c(O)cc(O)c4c5c(O)cc(O)c6c(=O)c7c(O)cc(C)c8c1c2c(c34)c(c78)c65 [hypericin] | 0 | 0.3 | 0 | 0.4 | 1.4 | 104% | 101% | 104% | 99.4% | 98.3% | 106% | 101% | 94% | 110% | 79.7% | 96.3% | 91.3% | 101% | 80.7% | 95.7% | 108% | 106% | 103% | 101% | 81.9% | 102% | 94.6% | 91.2% | 96.2% | 77.1% | > 10 µM | > 10 µM | > 10 µM | > 10 µM | > 10 µM
2 | CC[C@]12CCCN3CCc4c(n(c5ccccc45)[C@@](O)(C(=O)OC)C1)[C@@H]32 [vincamine] | 0 | 0 | 0 | 0 | 0 | 101% | 105% | 91.6% | 101% | 100% | 103% | 94.2% | 94.9% | 95.6% | 102% | 103% | 89.9% | 104% | 94% | 97.7% | 99.1% | 73.5% | 118% | 102% | 97.7% | 95.3% | 99.3% | 96.2% | 99.7% | 97.3% | > 10 µM | > 10 µM | > 10 µM | > 10 µM | > 10 µM
3 | NCC(CS(=O)(=O)O)c1ccc(Cl)cc1 (stereo not given) [saclofen] | 0.6 | 0 | 0 | 0 | 0 | 100% | 101% | 91% | 88.7% | 95.5% | 96.2% | 91.9% | 94.8% | 86.9% | 105% | 106% | 98.6% | 103% | 101% | 103% | 107% | 107% | 105% | 105% | 98% | 93.6% | 99.7% | 95.3% | 96.9% | 104% | > 10 µM | > 10 µM | > 10 µM | > 10 µM | > 10 µM
4 | CC(C)(C)N1CCC(c2ccccc2)(c2ccccc2)CC1 [budipine] | 0.3 | 0 | 0 | 0 | 0 | 98.4% | 103% | 86.3% | 102% | 82.7% | 96.9% | 97.3% | 101% | 101% | 96.7% | 96.1% | 91.8% | 91.9% | 93.9% | 98.8% | 88.8% | 95.8% | 101% | 102% | 88.9% | 91.9% | 99% | 97.3% | 102% | 97.6% | > 10 µM | > 10 µM | > 10 µM | > 10 µM | > 10 µM
5 | CC(=O)Nc1cccc2c1c(Sc1ccc(Cl)cc1)c(C)n2CC(=O)O [AZD1981] | 0 | 0 | 0 | 0 | 0 | 102% | 105% | 91.6% | 102% | 103% | 102% | 96% | 89.7% | 94.3% | 96.2% | 98.6% | 98.1% | 97.4% | 97.4% | 94.4% | 100% | 103% | 105% | 99.8% | 97.9% | 94.6% | 102% | 94.3% | 101% | 97.6% | > 10 µM | > 10 µM | > 10 µM | > 10 µM | > 10 µM
6 | CN(C/C=C/C#CC(C)(C)C)Cc1cccc2ccccc12 [terbinafine] | 0 | 0 | 0 | 0 | 0 | 93% | 81.1% | 90.5% | 112% | 88.5% | 103% | 102% | 106% | 92.9% | 114% | 104% | 94.2% | 109% | 94.5% | 95.6% | 99.4% | 91.9% | 101% | 99.6% | 89% | 103% | 98.9% | 95.3% | 99.5% | 102% | > 10 µM | > 10 µM | > 10 µM | > 10 µM | > 10 µM
7 | CC(C)[C@H](CO)Nc1nc(Nc2cccc(Cl)c2)c2ncn(C(C)C)c2n1 [purvalanol-A] | 0.4 | 0 | 1.4 | 0.4 | 0.2 | 91.6% | 103% | 93.4% | 94.2% | 83.1% | 102% | 109% | 96.5% | 102% | 91.4% | 100% | 97.4% | 93.7% | 95.5% | 77.3% | 90.8% | 96.8% | 100% | 94.8% | 87.2% | 97.4% | 105% | 95.5% | 99% | 86.4% | > 10 µM | > 10 µM | > 10 µM | > 10 µM | > 10 µM
8 | COC(=O)N[C@H](C(=O)N1CCC[C@H]1c1nc(-c2ccc3c(c2)O[C@@H](c2ccccc2)n2c-3cc3cc(-c4c[nH]c([C@@H]5CCCN5C(=O)[C@@H](NC(=O)OC)C(C)C)n4)ccc32)c[nH]1)C(C)C [elbasvir] | 0 | 0 | 0 | 0 | 0 | 85% | 103% | 93.1% | 96.1% | 101% | 99.9% | 106% | 95.8% | 107% | 102% | 105% | 98.5% | 95.3% | 95.5% | 107% | 110% | 88.7% | 108% | 104% | 96.8% | 90.3% | 100% | 98.2% | 97.8% | 99.7% | > 10 µM | > 10 µM | > 10 µM | > 10 µM | > 10 µM
9 | CN[C@@H](C)C(=O)N[C@H](C(=O)N1CCC[C@H]1C(=O)Nc1sc(-c2ncco2)nc1-c1ccccc1)C1CCCCC1 [CUDC-427] | 0 | 0.1 | 0 | 0 | 0 | 98.1% | 101% | 98.5% | 109% | 99.7% | 96.6% | 107% | 86.5% | 102% | 85.6% | 94.2% | 96.6% | 105% | 105% | 111% | 111% | 91.5% | 96.3% | 90% | 95.2% | 98% | 99.9% | 99.2% | 108% | 92.7% | > 10 µM | > 10 µM | > 10 µM | > 10 µM | > 10 µM
10 | CCCn1c(=O)c2[nH]c(-c3cnn(Cc4cccc(C(F)(F)F)c4)c3)nc2n(CC)c1=O [GS-6201] | 0 | 0 | 0 | 0 | 0 | 98.5% | 104% | 105% | 108% | 100% | 103% | 109% | 96.3% | 96.1% | 97.4% | 98.5% | 96.1% | 96.5% | 97.8% | 104% | 106% | 91.6% | 104% | 94.2% | 96.8% | 96.9% | 101% | 96.3% | 105% | 100% | > 10 µM | > 10 µM | > 10 µM | > 10 µM | > 10 µM
11 | Clc1ccc(C(Cn2ccnc2)OCc2ccsc2Cl)c(Cl)c1 (stereo not given) [tioconazole] | 0.6 | 0 | 0 | 0 | 0 | 106% | 95% | 93.5% | 99% | 81.2% | 103% | 92.8% | 102% | 90.8% | 99.5% | 100% | 104% | 99.8% | 97% | 101% | 108% | 100% | 112% | 102% | 90.7% | 100% | 97.2% | 96.9% | 92.9% | 93% | > 10 µM | > 10 µM | > 10 µM | > 10 µM | > 10 µM
12 | CCCCc1cc2ccccc2c(OCCN(C)C)n1 [dimethisoquin] | 0 | 0 | 0 | 0 | 0 | 107% | 102% | 91.5% | 105% | 97.6% | 104% | 97.7% | 92.3% | 95.6% | 98.3% | 106% | 97.5% | 97.3% | 96.1% | 94.3% | 103% | 104% | 109% | 91.2% | 102% | 98.9% | 106% | 102% | 105% | 91.3% | > 10 µM | > 10 µM | > 10 µM | > 10 µM | > 10 µM
13 | OC[C@H]1O[C@H](O)C[C@@H](O)[C@@H]1O [2-deoxyglucose] | 0 | 0 | 0 | 0 | 0 | 102% | 66.9% | 105% | 86.9% | 101% | 108% | 98.9% | 111% | 100% | 95.5% | 93.4% | 102% | 90.6% | 100% | 110% | 93.2% | 96% | 97.3% | 106% | 97.4% | 100% | 102% | 101% | 99.4% | 98% | > 10 µM | > 10 µM | > 10 µM | > 10 µM | > 10 µM
14 | CCCCNc1cc(C(=O)O)cc(S(N)(=O)=O)c1Oc1ccccc1 [bumetanide] | 0 | 0 | 0 | 0 | 0 | 90.2% | 103% | 103% | 94.1% | 96.7% | 95% | 93.1% | 104% | 95.4% | 95.1% | 117% | 108% | 107% | 95.6% | 99% | 103% | 98.5% | 104% | 107% | 94.6% | 97.9% | 101% | 98.9% | 99.1% | 102% | > 10 µM | > 10 µM | > 10 µM | > 10 µM | > 10 µM
